Source: patent US20190070229A1, “Composition comprising a lactic acid bacteria for preventing and treating vaginosis and the use thereof” (HAUDONGCHUN CO., LTD, priority 2016, published 2019)

Legend:
Conditions in all cases: MRS medium, 37° C.; A50, K50, S50 50, C34 34, T15 15, G20 20, R25 25 microgram/ml
[1] = test system: BBA (Bifidobacterium adolescentis); assay: Antibiotic susceptibility of lactic acid bacteria strains; type: cell-based; also: key: +++: being normally grown without the effect of antibiotic; −: being not grown caused by the effect of antibiotic
Method: (§1) In order to determine the antibiotic resistance of the lactic acid bacteria strains reproducing abundant lactic acids, i.e., Lactobacillus acidophilus (KCTC No. 3164), Bifidobacterium longum sub sp. longum (KCTC No. 3128) etc, the bacteria was inoculated into MRS medium (10 g of Protease peptone, 10 g of beef extract, 5 g of yeast extract, 20 g of D-glucose, 1 ml of Tween 80, 2 g of K2HPO4, 5 g of sodium acetate, 2 g of diammonium hydrogencitrate, 0.2 g of MgSO47H20, 0.2 g of MnSO4H20, 1 L of distilled water, pH 6.2-6.5) and performed to shaking incubation at 37° C. at the speed of 150 rpm.

[2] = test system: BLB (Lactobacillus brevis); assay: as above; type: cell-based; also: key: +++: being normally grown without the effect of antibiotic; −: being not grown caused by the effect of antibiotic
Method: as §1

BSS (Streptococcus sp) = assay: as above; type: cell-based; also: key: +++: being normally grown without the effect of antibiotic; −: being not grown caused by the effect of antibiotic
Method: as §1

[3] = test system: BBL (Bifidobacterium longum subsp. Longum); assay: as above; type: cell-based; also: key: +++: being normally grown without the effect of antibiotic; −: being not grown caused by the effect of antibiotic
Method: as §1

[4] = test system: BBC2 (Bifidobacterium catenulatum); assay: as above; type: cell-based
Method: as §1

[5] = test system: BLD (Lactobacillus delbrueckii subsp. bulgaricus); assay: as above; type: cell-based
Method: as §1

[6] = test system: BLC (Lactobacillus casei); assay: as above; type: cell-based
Method: as §1

BBC (Bacillus cereus) = assay: as above; type: cell-based
Method: as §1

[7] = test system: BLA (Lactobacillus acidophilus); assay: as above; type: cell-based
Method: as §1

[8] = test system: BBB1 (Bifidobacterium bifidum); set-up: key to the marks not given beside the values
[9] = test system: BBB2 (Bifidobacterium breve); set-up: key to the marks not given beside the values

Molecule	Antibiotic susceptibility (growth of BBA with antibiotic) [1]	Antibiotic susceptibility (growth of BLB with antibiotic) [2]	Antibiotic susceptibility (growth of BSS with antibiotic) (BSS (Streptococcus sp))	Antibiotic susceptibility (growth of BBL with antibiotic) [3]	Antibiotic susceptibility (growth of BBC2 with antibiotic) [4]	Antibiotic susceptibility (growth of BLD with antibiotic) [5]	Antibiotic susceptibility (growth of BLC with antibiotic) [6]	Antibiotic susceptibility (growth of BBC with antibiotic) (BBC (Bacillus cereus))	Antibiotic susceptibility (growth of BLA with antibiotic) [7]	Antibiotic susceptibility (growth of BBB1 with antibiotic) [8]	Antibiotic susceptibility (growth of BBB2 with antibiotic) [9]
CC1(C)S[C@@H]2[C@H](NC(=O)[C@H](N)c3ccccc3)C(=O)N2[C@H]1C(=O)O [Ampicillin, ampicillin]	−	−	−	−	−	−	−	−			
O=C(N[C@H](CO)[C@H](O)c1ccc([N+](=O)[O-])cc1)C(Cl)Cl [Chloramphenicol, chloramphenicol]	−	−	−	−	−	−	−	−	−		
NC[C@H]1O[C@H](O[C@H]2[C@H](O)[C@@H](O[C@H]3O[C@H](CO)[C@@H](O)[C@H](N)[C@H]3O)[C@H](N)C[C@@H]2N)[C@H](O)[C@@H](O)[C@@H]1O [Kanamycin, kanamycin]		+++	+++	+++		+++	+++		+++	+++	+++
CO[C@H]1/C=C/O[C@@]2(C)Oc3c(C)c(O)c4c(O)c(c(/C=N/N5CCN(C)CC5)c(O)c4c3C2=O)NC(=O)/C(C)=C\C=C\[C@H](C)[C@H](O)[C@@H](C)[C@@H](O)[C@@H](C)[C@H](OC(C)=O)[C@@H]1C [Ripampicin, rifampicin]	−	−	−	−	−	−	−	−	−		
[H]/N=C(/N)N[C@H]1[C@H](O)[C@@H](O)[C@H](O[C@@H]2O[C@@H](C)[C@](O)(C=O)[C@H]2O[C@@H]2O[C@@H](CO)[C@H](O)[C@@H](O)[C@@H]2NC)[C@@H](N/C(N)=N\[H])[C@@H]1O [Streptomycin]		−		+++		−	−		−		+++
CN(C)[C@@H]1C(=O)C(C(N)=O)=C(O)[C@@]2(O)C(=O)C3=C(O)c4c(O)cccc4[C@@](C)(O)[C@H]3C[C@@H]12 [Tetracyclin, tetracycline]	−	−	−	−	−	−	−	−	−		
gentamycin	+++	−		+++	+++	−	−	+++	−		
